# How the values were obtained:
# Format in all cases: functional, cell-based
# Details in all cases: Oocyte
# [1] = biological target: T1, Solute carrier family 15 member 2 (Mus musculus) (UniProt Q9ES07); assay: (§1) TP_TRANSPORTER: uptake (electrogenesis) in Xenopus laevis oocytes
# T1 sequence (whole entry): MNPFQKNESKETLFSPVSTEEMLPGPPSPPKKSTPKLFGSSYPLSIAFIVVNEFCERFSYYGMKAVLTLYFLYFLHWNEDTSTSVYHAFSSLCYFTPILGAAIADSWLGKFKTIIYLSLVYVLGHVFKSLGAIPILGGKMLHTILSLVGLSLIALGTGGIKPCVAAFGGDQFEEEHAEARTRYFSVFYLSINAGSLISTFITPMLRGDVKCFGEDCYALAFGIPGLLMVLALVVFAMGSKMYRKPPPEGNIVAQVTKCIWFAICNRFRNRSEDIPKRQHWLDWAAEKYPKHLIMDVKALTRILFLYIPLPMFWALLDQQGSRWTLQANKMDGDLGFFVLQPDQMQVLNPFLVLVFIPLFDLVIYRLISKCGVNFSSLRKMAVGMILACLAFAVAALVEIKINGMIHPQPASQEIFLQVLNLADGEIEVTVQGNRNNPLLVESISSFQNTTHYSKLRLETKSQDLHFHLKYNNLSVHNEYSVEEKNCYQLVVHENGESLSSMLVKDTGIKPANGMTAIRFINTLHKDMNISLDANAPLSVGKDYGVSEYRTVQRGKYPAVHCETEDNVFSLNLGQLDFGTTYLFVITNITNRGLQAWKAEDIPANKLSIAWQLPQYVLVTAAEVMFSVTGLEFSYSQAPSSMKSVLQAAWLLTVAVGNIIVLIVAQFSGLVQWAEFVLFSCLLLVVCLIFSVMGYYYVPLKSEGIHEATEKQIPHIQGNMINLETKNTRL
# [2] = biological target: T1, Solute carrier family 15 member 2 (Mus musculus); assay: TP_TRANSPORTER: uptake in Xenopus laevis oocytes
# [3] = biological target: Solute carrier family 15 member 2 (Mus musculus) (UniProt Q9ES07); assay: as §1; remark: listed apart in the source
Compound,Activity [1],further results
NCCC(=O)N[C@@H](Cc1c[nH]cn1)C(=O)O,substrate [+],–
NC(=O)CC[C@H](NC(=O)[C@@H](N)Cc1ccccc1)C(=O)O,–,Activity [2]: substrate [+]
BETA-ENDORPHIN,–,Activity [3]: substrate [+]
N[C@@H](CS)C(=O)NCC(=O)O,substrate [+],–
NC(N)=NCCC[C@H](NC(=O)[C@@H](N)Cc1ccc(O)cc1)C(=O)O,substrate [+],–
